Laboratory results reported in patent US20250353873A1, “COMPOUNDS AND METHODS FOR MODULATING APOE EXPRESSION” (Ionis Pharmaceuticals, Inc., priority 2024, published 2025).
Strand notation (5' to 3'): a small letter for the sugar, then the base; units joined by * are phosphorothioate-linked, units joined directly phosphodiester-linked; [ ] holds rarer units or linkages, { } end groups; capitals alone tell only the bases. [ms] = mesyl phosphoramidate linkage; e = 2'-O-(2-methoxyethyl) (MOE); k = constrained ethyl (cEt); [5mC] = 5-methylcytosine; d = 2'-deoxy (DNA)

Legend:
human APOE RNA [1] = assay: Activity in APOE C57BL/6NTac-Apoeem7250 knock-in mice, single ICV bolus, 4 weeks (Example 10); assay type: in vivo; conditions: single ICV bolus 300 μg, 4 weeks post treatment, normalized to mouse Ppia
Method in brief: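 Human APOE RNA, quantified by real-time RT-PCR with RTS3073 and normalized to mouse Ppia, was read in cortical brain and spinal cord 4 weeks post dosing. Dosing was a single ICV bolus of 300 μg per knock-in mouse; values are % of PBS-treated animals.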

human APOE RNA [2] = assay: Activity in APOE C57BL/6NTac-Apoeem7250 knock-in mice, single ICV bolus, 16 weeks (Example 12); assay type: in vivo; conditions: single ICV bolus 300 μg, 16 weeks post treatment, normalized to mouse Ppia
Method in brief: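 A single 300 μg intracerebroventricular dose was given, with PBS-treated mice as reference; cortical and spinal cord tissue was taken 16 weeks later. RT-qPCR quantified human APOE RNA, Ppia-normalized, expressed relative to PBS animals (% control).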

human APOE RNA [3] = assay: Activity in APOE C57BL/6NTac-Apoeem7250 knock-in mice, single ICV bolus, 20 weeks (Example 13); assay type: in vivo; conditions: single ICV bolus 300 μg, 20 weeks post treatment, normalized to mouse Ppia
Method in brief: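 Cortical and spinal cord RNA was assayed by real-time RT-PCR for human APOE, normalized to mouse Ppia and reported as percent of PBS controls. Tissue was taken twenty weeks after one 300 μg intracerebroventricular bolus in APOE knock-in mice, 4 per group.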

human APOE RNA [4] = assay: Activity in APOE C57BL/6NTac-Apoeem7250 knock-in mice, single ICV bolus, 8 weeks (Example 11); assay type: in vivo; conditions: single ICV bolus 300 μg, 8 weeks post treatment, normalized to mouse Ppia
Method in brief: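 Cortical and spinal cord human APOE RNA quantified by RT-qPCR 8 weeks after a single 300 μg ICV dose in knock-in mice, Ppia-normalized. Values are percent of levels in PBS-treated animals.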

human APOE RNA [5] = assay: Dose-dependent inhibition of human APOE RNA in HepG2 cells, electroporation, 50,000 cells per well, RT-PCR normalized to GAPDH (Example 4, Tables 8-10); assay type: cell-based; conditions: for APOE RNA (% UTC) 1,280 nM: 24-hour treatment, 1,280 nM; for APOE RNA (% UTC) 3,200 nM: 24-hour treatment, 3,200 nM; for APOE RNA (% UTC) 8,000 nM: 24-hour treatment, 8,000 nM; for APOE RNA (% UTC) 20,000 nM: 24-hour treatment, 20,000 nM
Method in brief: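 Readout is percent APOE RNA versus untreated controls, measured by RT-PCR (primer probe set RTS3073) and normalized to human GAPDH. Modified oligonucleotides were delivered by electroporation at varying doses into HepG2 cells plated at 50,000 per well.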

[6] = HepG2 cells, electroporation, 24-hour treatment, 5 nM, Table 8
[7] = HepG2 cells, electroporation, 24-hour treatment, 13 nM, Table 8
[8] = HepG2 cells, electroporation, 24-hour treatment, 33 nM, Table 8
[9] = HepG2 cells, electroporation, 24-hour treatment, 82 nM, Table 8
[10] = HepG2 cells, electroporation, 24-hour treatment, 205 nM, Table 8
[11] = HepG2 cells, electroporation, 24-hour treatment, 512 nM, Table 8
[12] = HepG2 cells, electroporation, Table 8
[13] = reduction of human APOE RNA, HepG2 cells, electroporation, 24-hour treatment, Table 8
[14] = 5 nM, HepG2, electroporation, 16-hour treatment
[15] = 13 nM, HepG2, electroporation, 16-hour treatment
[16] = 33 nM, HepG2, electroporation, 16-hour treatment
[17] = 82 nM, HepG2, electroporation, 16-hour treatment
[18] = 205 nM, HepG2, electroporation, 16-hour treatment
[19] = 512 nM, HepG2, electroporation, 16-hour treatment
[20] = 1,280 nM, HepG2, electroporation, 16-hour treatment
[21] = 3,200 nM, HepG2, electroporation, 16-hour treatment
[22] = 8,000 nM, HepG2, electroporation, 16-hour treatment
[23] = 20,000 nM, HepG2, electroporation, 16-hour treatment
[24] = HepG2, electroporation, 16-hour treatment

Substance | APOE RNA (% control) Cortex (human APOE RNA [1]) | APOE RNA (% control) Spinal Cord (human APOE RNA [1]) | APOE RNA (% control) Cortex (human APOE RNA [2]) | APOE RNA (% control) Spinal Cord (human APOE RNA [2]) | APOE RNA (% control) Cortex (human APOE RNA [3]) | APOE RNA (% control) Spinal Cord (human APOE RNA [3]) | APOE RNA (% control) Cortex (human APOE RNA [4]) | APOE RNA (% control) Spinal Cord (human APOE RNA [4]) | APOE RNA (% UTC) 5 nM (human APOE RNA [5]; [6]) | APOE RNA (% UTC) 13 nM (human APOE RNA [5]; [7]) | APOE RNA (% UTC) 33 nM (human APOE RNA [5]; [8]) | APOE RNA (% UTC) 82 nM (human APOE RNA [5]; [9]) | APOE RNA (% UTC) 205 nM (human APOE RNA [5]; [10]) | APOE RNA (% UTC) 512 nM (human APOE RNA [5]; [11]) | APOE RNA (% UTC) 1,280 nM (human APOE RNA [5]; [12]) | APOE RNA (% UTC) 3,200 nM (human APOE RNA [5]; [12]) | APOE RNA (% UTC) 8,000 nM (human APOE RNA [5]; [12]) | APOE RNA (% UTC) 20,000 nM (human APOE RNA [5]; [12]) | IC50 (human APOE RNA [5]; [13]) | also measured
1778123: modified oligonucleotide complementary to human APOE RNA (eA*e[5mC]eTeTeG*eG*dT*dG[ms]dA[ms]dA*dT*d[5mC]*dT*dT*dT*dA[ms]kTkT*eA*eA; antisense) [compound 1778123] | 37 % control | 59 % control | 54 % control | 31 % control | 77 % control | 36 % control | 49 % control | 29 % control | 79 % UTC | 91 % UTC | 84 % UTC | 76 % UTC | 55 % UTC | 51 % UTC | 25 % UTC | 11 % UTC | 6 % UTC | 5 % UTC | 320 nM | 
1778125: modified oligonucleotide complementary to human APOE RNA (eA*e[5mC]eTeTeGeG*dT*dG[ms]dA[ms]dA*dT*d[5mC]*dT*dT*dT*dA[ms]kTkT*eA*eA; antisense) [compound 1778125] | 40 % control | 52 % control | 75 % control | 42 % control | 81 % control | 49 % control | 59 % control | 37 % control | 108 % UTC | 100 % UTC | 77 % UTC | 74 % UTC | 63 % UTC | 39 % UTC | 22 % UTC | 17 % UTC | 5 % UTC | 3 % UTC | 320 nM | 
1785601: modified oligonucleotide complementary to human APOE RNA (k[5mC]*kT*kT*dG[ms]dG[ms]dT[ms]dG*dA[ms]dA[ms]dT*d[5mC]*dT*dT*dT*dA[ms]dT*kT*kA*dA[ms]kA; antisense) [compound 1785601] | 33 % control | 40 % control | 39 % control | 21 % control | 43 % control | 31 % control | 28 % control | 211 % control | 111 % UTC | 115 % UTC | 101 % UTC | 75 % UTC | 63 % UTC | 36 % UTC | 25 % UTC | 15 % UTC | 16 % UTC | 10 % UTC | 380 nM | 
1757574 (eA*e[5mC]eTeT*eG*eG*dT*dG[ms]dA[ms]dA[ms]dT*d[5mC]*dT*dT*dT*dA[ms]kT*kT*eA*eA; antisense) [Compound 1757574] | 43 % control | 32 % control | 55 % control | 22 % control | 60 % control | 68 % control | 44 % control | 21 % control |  |  |  |  |  |  |  |  |  |  |  | APOE RNA (% UTC) (human APOE RNA [5]; [14]): 90 % UTC; APOE RNA (% UTC) (human APOE RNA [5]; [15]): 80 % UTC; APOE RNA (% UTC) (human APOE RNA [5]; [16]): 85 % UTC; APOE RNA (% UTC) (human APOE RNA [5]; [17]): 78 % UTC; APOE RNA (% UTC) (human APOE RNA [5]; [18]): 93 % UTC; APOE RNA (% UTC) (human APOE RNA [5]; [19]): 66 % UTC; APOE RNA (% UTC) (human APOE RNA [5]; [20]): 47 % UTC; APOE RNA (% UTC) (human APOE RNA [5]; [21]): 28 % UTC; APOE RNA (% UTC) (human APOE RNA [5]; [22]): 19 % UTC; APOE RNA (% UTC) (human APOE RNA [5]; [23]): 20 % UTC; IC50 (human APOE RNA [5]; [24]): 1170 nM
1778115: modified oligonucleotide complementary to human APOE RNA (eA*e[5mC]eTeTkGkG*dT*dG[ms]dA[ms]dA*dT*d[5mC]*dT*dT*dT*dA[ms]eTeT*eA*eA; antisense) [compound 1778115] | 37 % control | 66 % control | 44 % control | 28 % control | 77 % control | 28 % control | 46 % control | 27 % control | 76 % UTC | 75 % UTC | 73 % UTC | 85 % UTC | 72 % UTC | 43 % UTC | 38 % UTC | 29 % UTC | 32 % UTC | 6 % UTC | 530 nM | 
1757571 (eA*e[5mC]eTeT*eG*kG*dT*dG[ms]dA[ms]dA[ms]dT*d[5mC]*dT*dT*dT*dA[ms]eT*eT*eA*eA; antisense) [Compound 1757571] | 48 % control | 35 % control | 47 % control | 26 % control | 53 % control | 73 % control | 66 % control | 33 % control |  |  |  |  |  |  |  |  |  |  |  | APOE RNA (% UTC) (human APOE RNA [5]; [14]): 68 % UTC; APOE RNA (% UTC) (human APOE RNA [5]; [15]): 86 % UTC; APOE RNA (% UTC) (human APOE RNA [5]; [16]): 98 % UTC; APOE RNA (% UTC) (human APOE RNA [5]; [17]): 62 % UTC; APOE RNA (% UTC) (human APOE RNA [5]; [18]): 103 % UTC; APOE RNA (% UTC) (human APOE RNA [5]; [19]): 38 % UTC; APOE RNA (% UTC) (human APOE RNA [5]; [20]): 26 % UTC; APOE RNA (% UTC) (human APOE RNA [5]; [21]): 24 % UTC; APOE RNA (% UTC) (human APOE RNA [5]; [22]): 14 % UTC; APOE RNA (% UTC) (human APOE RNA [5]; [23]): 11 % UTC; IC50 (human APOE RNA [5]; [24]): 550 nM
1778120 (eA*e[5mC]eTeTeGeG*dT*dG[ms]dA[ms]dA*dT*d[5mC]*dT*dT*dT*dA[ms]kTeT*eA*eA; antisense) [Compound 1778120] | 47 % control | 58 % control | 75 % control | 46 % control | 78 % control | 44 % control | 57 % control | 24 % control |  |  |  |  |  |  |  |  |  |  |  | 
